Key:
[1] = test system: MIA PaCa-2 human pancreatic carcinoma; assay: MIA PaCa-2 CCK-8 proliferation assay; assay type: cell-based; settings: MIA PaCa-2 cells
In short: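 Compounds were tested as a 3-fold series from 20 μM down to 1.02 nM in CCK-8 absorbance assays. The lines used were NCI-H23 and NCI-H358, each with 1 KRAS(G12C) copy, and MIA PaCa-2 with 2 copies. Inhibition was derived relative to DMSO controls, with a no-cell blank subtracted.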

[2] = molecular target: T1, KRAS(G12C) (Homo sapiens, UniProt P01116, G12C); assay: KRAS(G12C)/SOS1 homogeneous time-resolved fluorescence (HTRF) assay; set-up: purchased Cisbio 63ADK000CB16PEG; settings: absence of GTP, 4° C. for 3 hr, read-out: KRAS (G12C) binding
In short: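 Three-hour incubation at 4 °C of 3-fold compound dilutions (lowest 1.02 nM) with KRAS(G12C), SOS1 and detection reagents, GTP absent. Disruption of the KRAS(G12C)/SOS1 complex detected by time-resolved fluorescence.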

[3] = molecular target: T1, KRAS(G12C); assay: KRAS(G12C) Western blot protein degradation assay in LU65A cells; assay type: cell-based; set-up: LU65A human lung cancer cell line, which expresses KRAS(G12C); host or cells: LU65A; settings: 6 hr
In short: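 KRAS levels read by fluorescent Western blot (β-actin as reference) on BCA-normalized lysates. Exposure to a compound concentration range at 37 °C lasted 6 hr in LU65A and 48 hr in MIA PaCa-2; DC50 taken as half-maximal degradation concentration.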

Compound	EC50 ([1]; Homo sapiens, MIA PaCa-2, 72 h) [nM]	IC50 [2] [nM]	DC50 [3] [nM]	EC50 ([1]; 72 hr) [nM]
C=CC(=O)N1CCN(c2nc(OCCN3CCC(N4CCN(Cc5ccc(-n6c(O)nnc6-c6cc(C)c(O)cc6O)cc5)CC4)CC3)nc3c2CCN(c2cccc4cccc(Cl)c24)C3)C[C@@H]1CC#N [Compound 236, (S)-2-(1-acryloyl-4-(7-(8-chloronaphthalen-1-yl)-2-(2-(4-(4-(4-(3-(2,4-dihydroxy-5-methylphenyl)-5-hydroxy-4H-1,2,4-triazol-4-yl)benzyl)piperazin-1-yl)piperidin-1-yl)ethoxy)-5,6,7,8-tetrahydropyrido[3,4-d]pyrimidin-4-yl)piperazin-2-yl)acetonitrile]	> 1000	< 100	> 1000	–
C=CC(=O)N1CCN(c2nc(OC[C@@H]3C[C@H](N4CCN(C(=O)C5CCN(Cc6ccc(-n7c(O)nnc7-c7cc(C)c(O)cc7O)cc6)CC5)CC4)CN3C)nc3c2CCN(c2cccc4cccc(Cl)c24)C3)C[C@@H]1CC#N [Compound 265, 2-[(2S)-4-[7-(8-chloronaphthalen-1-yl)-2-{[(2S,4S)-4-{4-[1-({4-[3-(2,4-dihydroxy-5-methylphenyl)-5-hydroxy-1,2,4-triazol-4-yl]phenyl}methyl)piperidine-4-carbonyl]piperazin-1-yl}-1-methylpyrrolidin-2-yl]methoxy}-5H,6H,8H-pyrido[3,4-d]pyrimidin-4-yl]-1-(prop-2-enoyl)piperazin-2-yl]acetonitrile]	> 1000	< 100	> 1000	–
C=CC(=O)N1CCN(c2nc(OC[C@@H]3CC[C@H](CN4CCN(C(=O)C5CCN(Cc6ccc(-n7c(C(=O)NCC)nnc7-c7cc(C(C)C)c(O)cc7O)cc6)CC5)CC4)N3C)nc3c2CCN(c2cccc4ccc(F)c(Cl)c24)C3)C[C@@H]1CC#N [Compound 269, 4-(4-{[4-(4-{[(2R,5S)-5-({[7-(8-chloro-7-fluoronaphthalen-1-yl)-4-[(3S)-3-(cyanomethyl)-4-(prop-2-enoyl)piperazin-1-yl]-5H,6H,8H-pyrido[3,4-d]pyrimidin-2-yl]oxy}methyl)-1-methylpyrrolidin-2-yl]methyl}piperazine-1-carbonyl)piperidin-1-yl]methyl}phenyl)-5-(2,4-dihydroxy-5-isopropylphenyl)-N-ethyl-1,2,4-triazole-3-carboxamide]	< 100	< 100	> 1000	–
C=CC(=O)N1CCN(c2nc(OC[C@@H]3CC[C@H](CN4CCN(C(=O)C5CCN(Cc6ccc(-n7c(C(=O)NCC)nnc7-c7cc(CC)c(O)cc7O)cc6)CC5)CC4)N3C)nc3c2CCN(c2cccc4cccc(Cl)c24)C3)C[C@@H]1CC#N [Compound 244, 4-(4-{[4-(4-{[(2R,5S)-5-({[7-(8-chloronaphthalen-1-yl)-4-[(3S)-3-(cyanomethyl)-4-(prop-2-enoyl)piperazin-1-yl]-5H,6H,8H-pyrido[3,4-d]pyrimidin-2-yl]oxy}methyl)-1-methylpyrrolidin-2-yl]methyl}piperazine-1-carbonyl)piperidin-1-yl]methyl}phenyl)-N-ethyl-5-(5-ethyl-2,4-dihydroxyphenyl)-1,2,4-triazole-3-carboxamide]	< 100	< 100	100 to 1000	–
(S)-4-(4-((4-(1-(2-((4-(4-acryloyl-3-(cyanomethyl)piperazin-1-yl)-7-(8-chloronaphthalen-1-yl)-5,6,7,8-tetrahydropyrido[3,4-d]pyrimidin-2-yl)oxy)ethyl)piperidine-4-carbonyl)piperazin-1-yl)methyl)phenyl)-5-(2,4-dihydroxy-5-methylphenyl)-N-(2,2,2-trifluoroethyl)-4H-1,2,4-triazole-3-carboxamide [Compound 257]	–	< 100	100 to 1000	100 to 1000
C=C(F)C(=O)N1CCN(c2nc(OC[C@@H]3CC[C@H](CN4CCN(Cc5ccc(-n6c(O)nnc6-c6cc(C(C)C)c(O)cc6O)cc5)CC4)N3C)nc3c2CCN(c2cccc4ccccc24)C3)C[C@@H]1CC#N [Compound 286, 2-[(2S)-4-(2-{[(2S,5R)-5-{[4-({4-[3-(2,4-dihydroxy-5-isopropylphenyl)-5-hydroxy-1,2,4-triazol-4-yl]phenyl}methyl)piperazin-1-yl]methyl}-1-methylpyrrolidin-2-yl]methoxy}-7-(naphthalen-1-yl)-5H,6H,8H-pyrido[3,4-d]pyrimidin-4-yl)-1-(2-fluoroprop-2-enoyl)piperazin-2-yl]acetonitrile]	< 100	100 to 1000	> 1000	–
C=CC(=O)N1CCN(c2nc(OC[C@@H]3C[C@H](N4CCC(C(=O)N5CCN(Cc6ccc(-n7c(O)nnc7-c7cc(C)c(O)cc7O)cc6)CC5)CC4)CN3C)nc3c2CCN(c2cccc4ccccc24)C3)C[C@@H]1CC#N [Compound 247, 2-[(2S)-4-(2-{[(2S,4S)-4-{4-[4-({4-[3-(2,4-dihydroxy-5-methylphenyl)-5-hydroxy-1,2,4-triazol-4-yl]phenyl}methyl)piperazine-1-carbonyl]piperidin-1-yl}-1-methylpyrrolidin-2-yl]methoxy}-7-(naphthalen-1-yl)-5H,6H,8H-pyrido[3,4-d]pyrimidin-4-yl)-1-(prop-2-enoyl)piperazin-2-yl]acetonitrile]	> 1000	< 100	> 1000	–
C=CC(=O)N1CCN(c2nc(OC[C@@H]3CC[C@H](CN4CCN(C(=O)C5CCN(Cc6ccc(-n7c(O)nnc7-c7cc(C)c(O)cc7O)cc6)CC5)CC4)N3C)nc3c2CCN(c2cccc4ccccc24)C3)C[C@@H]1CC#N [Compound 256, 2-[(2S)-4-(2-{[(2S,5R)-5-({4-[1-({4-[3-(2,4-dihydroxy-5-methylphenyl)-5-hydroxy-1,2,4-triazol-4-yl]phenyl}methyl)piperidine-4-carbonyl]piperazin-1-yl}methyl)-1-methylpyrrolidin-2-yl]methoxy}-7-(naphthalen-1-yl)-5H,6H,8H-pyrido[3,4-d]pyrimidin-4-yl)-1-(prop-2-enoyl)piperazin-2-yl]acetonitrile]	> 1000	< 100	> 1000	–
C=CC(=O)N1CCN(c2nc(OC[C@@H]3CC[C@H](CN4CCN(Cc5ccc(-n6c(C(=O)NCC)nnc6-c6cc(C(C)C)c(O)cc6O)cc5)CC4)N3C)nc3c2CCN(c2cccc4ccccc24)C3)C[C@@H]1CC#N [Compound 288, 4-{4-[(4-{[(2R,5S)-5-[({4-[(3S)-3-(cyanomethyl)-4-(prop-2-enoyl)piperazin-1-yl]-7-(naphthalen-1-yl)-5H,6H,8H-pyrido[3,4-d]pyrimidin-2-yl}oxy)methyl]-1-methylpyrrolidin-2-yl]methyl}piperazin-1-yl)methyl]phenyl}-5-(2,4-dihydroxy-5-isopropylphenyl)-N-ethyl-1,2,4-triazole-3-carboxamide]	< 100	< 100	> 1000	–
C=CC(=O)N1CCN(c2nc(OCCN3CCC(C(=O)N4CCN(Cc5ccc(-n6c(C(=O)NCC(F)(F)F)nnc6-c6cc(C)c(O)cc6O)cc5)CC4)CC3)nc3c2CCN(c2cccc4cccc(Cl)c24)C3)C[C@@H]1CC#N [Compound 250, (S)-4-(4-((4-(1-(2-((4-(4-acryloyl-3-(cyanomethyl)piperazin-1-yl)-7-(8-chloronaphthalen-1-yl)-5,6,7,8-tetrahydropyrido[3,4-d]pyrimidin-2-yl)oxy)ethyl)piperidine-4-carbonyl)piperazin-1-yl)methyl)phenyl)-5-(2,4-dihydroxy-5-methylphenyl)-N-(2,2,2-trifluoroethyl)-4H-1,2,4-triazole-3-carboxamide]	–	< 100	> 1000	100 to 1000
C=CC(=O)N1CCN(c2nc(OC[C@@H]3C[C@H](N4CCN(CC5CCN(Cc6ccc(-n7c(O)nnc7-c7cc(C(C)C)c(O)cc7O)cc6)CC5)CC4)CN3C)nc3c2CCN(c2cccc4cccc(Cl)c24)C3)C[C@@H]1CC#N [Compound 275, 2-[(2S)-4-[7-(8-chloronaphthalen-1-yl)-2-{[(2S,4S)-4-(4-{[1-({4-[3-(2,4-dihydroxy-5-isopropylphenyl)-5-hydroxy-1,2,4-triazol-4-yl]phenyl}methyl)piperidin-4-yl]methyl}piperazin-1-yl)-1-methylpyrrolidin-2-yl]methoxy}-5H,6H,8H-pyrido[3,4-d]pyrimidin-4-yl]-1-(prop-2-enoyl)piperazin-2-yl]acetonitrile]	100 to 1000	< 100	100 to 1000	–
C=CC(=O)N1CCN(c2nc(OC[C@@H]3C[C@H](N4CCC5(CCN(Cc6ccc(-n7c(C(=O)NCC)nnc7-c7cc(C(C)C)c(O)cc7O)cc6)CC5)CC4)CN3C)nc3c2CCN(c2cccc4cccc(Cl)c24)C3)C[C@@H]1CC#N [Compound 259, 4-[4-({9-[(3S,5S)-5-({[7-(8-chloronaphthalen-1-yl)-4-[(3S)-3-(cyanomethyl)-4-(prop-2-enoyl)piperazin-1-yl]-5H,6H,8H-pyrido[3,4-d]pyrimidin-2-yl]oxy}methyl)-1-methylpyrrolidin-3-yl]-3,9-diazaspiro[5.5]undecan-3-yl}methyl)phenyl]-5-(2,4-di hydroxy-5-isopropylphenyl)-N-ethyl-1,2,4-triazole-3-carboxamide]	< 100	< 100	< 100	–
